Starred links: 1 amine or outer side, 2 acyl side, 3 side chain; linkers in the order of their positions; H or OH if unused. Positions of bridges follow the written chain, without caps; N, C: chain ends. Non-standard residues stand in square brackets, D forms with d. Residues, ends and D or L forms follow the SMILES beside them. *: point of attachment. X3 = O=C(O)CCCCCCCCCCCCCCCCC(=O)N[C@@H](CCC(=O)NCCCOCCOCCOCCCN*)C(=O)O; Trp(1-CH2CONHSO2Me) = CS(=O)(=O)NC(=O)Cn1cc(C[C@H](N)C(=O)O)c2ccccc21; X1 = O=C(O)CCCCCCCCCCCCCCC(=O)N[C@@H](CCC(=O)NCCCOCCOCCOCCCN*)C(=O)O; Trp(4-aza,1-CH2COOH) = N[C@@H](Cc1cn(CC(=O)O)c2cccnc12)C(=O)O; X6 = COc1ccc2c(c1)c(C[C@H](N[*:1])C(=O)[*:2])cn2CC(=O)O; X4 = O=C(O)Cn1nc(C[C@H](N[*:1])C(=O)[*:2])c2ccccc21; d(cisHyp) = O=C(O)[C@H]1C[C@@H](O)CN1; Hyp = O=C(O)[C@@H]1C[C@@H](O)CN1; NMeNle = CCCC[C@H](NC)C(=O)O; NMeA = CN[C@@H](C)C(=O)O; Dab = NCC[C@H](N)C(=O)O; Dap = NC[C@H](N)C(=O)O; Sar = CNCC(=O)O
Target: T1, PD-1-Ig binding to PD-L1-TVMV-His (PD-L1-His) (Homo sapiens, UniProt Q9NZQ7)
T1 construct: hPDL1(19-239)-TVMV-His; TVMV protease cleavage site (C); made in house; host or cells: HEK293T cells
T1 sequence (Q9NZQ7 with tags, fused parts or gaps): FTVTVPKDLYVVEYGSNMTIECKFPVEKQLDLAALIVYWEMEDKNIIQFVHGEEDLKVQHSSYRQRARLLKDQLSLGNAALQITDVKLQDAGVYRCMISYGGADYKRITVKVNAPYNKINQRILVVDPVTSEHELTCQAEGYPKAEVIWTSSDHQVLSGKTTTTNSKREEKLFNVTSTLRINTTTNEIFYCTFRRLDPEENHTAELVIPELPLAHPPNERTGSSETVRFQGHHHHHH
Experiment: PD-1/PD-L1 Homogenous Time-Resolved Fluorescence (HTRF) binding assay
Conditions: PD-1-Ig (20 nM) / PD-L1-His (10 nM); range classes; read-out: LE HTRF hPD1 hPDL1 IC50

IC50, 1.1 to 9 nM:
CCCC[C@H]1C(=O)N(C)[C@@H](CCCC)C(=O)N[C@@H](CC(C)C)C(=O)N[C@H](C(=O)NCC(=O)N[C@@H](CC(=O)NCCCOCCOCCOCCCNC(=O)CC[C@H](NC(=O)CCCCCCCCCCCCCCCCC(=O)O)C(=O)O)C(=O)O)CSCC(=O)N[C@@H](Cc2ccc(O)cc2)C(=O)N(C)[C@@H](C)C(=O)N[C@@H](CC(N)=O)C(=O)N(C)CC(=O)N[C@@H](CN)C(=O)N[C@@H](CC(C)C)C(=O)N2C[C@H](O)C[C@H]2C(=O)N[C@@H](Cc2c[nH]c3ccccc23)C(=O)N[C@@H](CCN)C(=O)N[C@@H](Cc2nn(CC(=O)O)c3ccccc23)C(=O)N1C [Example 6] ({CH2CO}-Y[NMeA]N[Sar][Dap]L[Hyp]W[Dab][X4][NMeNle][NMeNle]LCGD(X3)-OH; thioether N-14), CCCC[C@H]1C(=O)N(C)[C@@H](CCCC)C(=O)N[C@@H](CC(C)C)C(=O)N[C@H](C(=O)NCC(=O)N[C@@H](CC(=O)NCCCOCCOCCOCCCNC(=O)CC[C@H](NC(=O)CCCCCCCCCCCCCCC(=O)O)C(=O)O)C(=O)O)CSCC(=O)N[C@@H](Cc2ccc(O)cc2)C(=O)N(C)[C@@H](C)C(=O)N[C@@H](CC(N)=O)C(=O)N2CCC[C@H]2C(=O)N[C@@H](CN)C(=O)N[C@@H](CC(C)C)C(=O)N2C[C@H](O)C[C@H]2C(=O)N[C@@H](Cc2c[nH]c3ccccc23)C(=O)N[C@@H](CCN)C(=O)N[C@@H](Cc2cn(CC(=O)O)c3ccc(OC)cc23)C(=O)N1C [Example 21] ({CH2CO}-Y[NMeA]NP[Dap]L[Hyp]W[Dab][X6][NMeNle][NMeNle]LCGD(X1)-OH; thioether N-14), CCCC[C@H]1C(=O)N(C)[C@@H](CCCC)C(=O)N[C@@H](CC(C)C)C(=O)N[C@H](C(=O)NCC(=O)N[C@@H](CC(=O)NCCCOCCOCCOCCCNC(=O)CC[C@H](NC(=O)CCCCCCCCCCCCCCC(=O)O)C(=O)O)C(=O)O)CSCC(=O)N[C@@H](Cc2ccc(O)cc2)C(=O)N(C)[C@@H](C)C(=O)N[C@@H](CC(N)=O)C(=O)N2CCC[C@H]2C(=O)N[C@@H](CN)C(=O)N[C@@H](CC(C)C)C(=O)N2C[C@H](O)C[C@H]2C(=O)N[C@@H](Cc2c[nH]c3ccccc23)C(=O)N[C@@H](CCN)C(=O)N[C@@H](Cc2cn(CC(=O)NS(C)(=O)=O)c3ccccc23)C(=O)N1C [Example 15] ({CH2CO}-Y[NMeA]NP[Dap]L[Hyp]W[Dab][Trp(1-CH2CONHSO2Me)][NMeNle][NMeNle]LCGD(X1)-OH; thioether N-14), CCCC[C@H]1C(=O)N(C)[C@@H](CCCC)C(=O)N[C@@H](CC(C)C)C(=O)N[C@H](C(=O)NCC(=O)N[C@@H](CC(=O)NCCCOCCOCCOCCCNC(=O)CC[C@H](NC(=O)CCCCCCCCCCCCCCCCC(=O)O)C(=O)O)C(=O)O)CSCC(=O)N[C@@H](Cc2ccc(O)cc2)C(=O)N(C)[C@@H](C)C(=O)N[C@@H](CC(N)=O)C(=O)N(C)CC(=O)N[C@@H](CN)C(=O)N[C@@H](CC(C)C)C(=O)N2C[C@H](O)C[C@@H]2C(=O)N[C@@H](Cc2c[nH]c3ccccc23)C(=O)N[C@@H](CCN)C(=O)N[C@@H](Cc2cn(CC(=O)O)c3cccnc23)C(=O)N1C [Example 8] ({CH2CO}-Y[NMeA]N[Sar][Dap]L[d(cisHyp)]W[Dab][Trp(4-aza,1-CH2COOH)][NMeNle][NMeNle]LCGD(X3)-OH; thioether N-14)
